In brackets after ≈: the same amount, converted by molar mass.
Key:
[1] = cited from earlier work
[2] = solubility in water or ethanol; format: physicochemical

| Structure (SMILES) | solubility in water at 25° C. [1] [µg/mL] | solubility in ethanol ([2]; ethanol) | solubility in water ([2]; water) |
| --- | --- | --- | --- |
| CC(C)CN(C[C@@H](O)[C@H](Cc1ccccc1)NC(=O)O[C@H]1CCOC1)S(=O)(=O)c1ccc(N)cc1 [APV, amprenavir] | 40 (≈ 79.1 µM) | – | – |
| CC(C)CN(C[C@@H](OP(=O)([O-])[O-])[C@H](Cc1ccccc1)NC(=O)O[C@H]1CCOC1)S(=O)(=O)c1ccc([N+](=O)[O-])cc1.[Na+].[Na+] [sodium (3S)4etrahydrofuran-3-yl(1S,2R)-3-[(4-nitrophenyl)sulfonyl](isobutyl)amino-1-benzyl-2-(phosphonooxy)propyl-carbamate] | – | soluble | soluble |

From US20130225839A1, “PREPARATION METHOD OF FOSAMPRENAVIR DERIVATIVES AND RELEVANT INTERMEDIATE THEREOF” (ZHEJIANG JIUHOU PHARMA SCIENCE & TECHNOLOGY CO., LTD., priority 2010, published 2013)
